Source: patent publication US9108951B2, “Substituted 5,6,7,8-tetrahydro-1,6-naphthyridines as factor XIa inhibitors” (BRISTOL-MYERS SQUIBB COMPANY, priority 2011, dated 2015)
Structures can show the parent of a compound that is named as a salt.

Target: purified human Factor XIa (Homo sapiens (Human), UniProt P03951)
Assay: Factor XIa assay (chromogenic substrate hydrolysis, Ki)
Type: biochemical
Conditions: synthetic substrate S-2366, 50 mM HEPES pH 7.4
Method: The effectiveness of compounds of the present invention as inhibitors of the coagulation factors XIa, VIIa, IXa, Xa, XIIa, plasma kallikrein or thrombin, can be determined using a relevant purified serine protease, respectively, and an appropriate synthetic substrate. The rate of hydrolysis of the chromogenic or fluorogenic substrate by the relevant serine protease was measured both in the absence and presence of compounds of the present invention. […] A decrease in the rate of absorbance or fluorescence change in the presence of inhibitor is indicative of enzyme inhibition. Such methods are known to one skilled in the art. The results of this assay are expressed as the inhibitory constant, Ki.
Values of Ki were determined by allowing the protease to react with the substrate in the presence of the inhibitor. Reactions were allowed to go for periods of 20-180 minutes (depending on the protease) and the velocities (rate of absorbance or fluorescence change versus time) were measured. The following relationships were used to calculate Ki values: (vo−vs)/vs=I/(Ki(1+S/Km)) for a competitive inhibitor with one binding site; or vs/vo=A+((B−A)/1+((IC50/(I)n))); and Ki=IC50/(1+S/Km) for a competitive inhibitor where: […]

Chain of purified human Factor XIa (P03951 388-625): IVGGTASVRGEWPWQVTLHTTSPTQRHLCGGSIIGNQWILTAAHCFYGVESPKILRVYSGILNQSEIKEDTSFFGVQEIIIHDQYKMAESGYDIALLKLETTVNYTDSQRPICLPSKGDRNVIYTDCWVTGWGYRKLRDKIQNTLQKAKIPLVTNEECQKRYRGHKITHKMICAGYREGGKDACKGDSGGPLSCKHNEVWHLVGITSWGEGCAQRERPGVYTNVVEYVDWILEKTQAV
Chain of purified human Factor XIa (P03951 19-387 partner): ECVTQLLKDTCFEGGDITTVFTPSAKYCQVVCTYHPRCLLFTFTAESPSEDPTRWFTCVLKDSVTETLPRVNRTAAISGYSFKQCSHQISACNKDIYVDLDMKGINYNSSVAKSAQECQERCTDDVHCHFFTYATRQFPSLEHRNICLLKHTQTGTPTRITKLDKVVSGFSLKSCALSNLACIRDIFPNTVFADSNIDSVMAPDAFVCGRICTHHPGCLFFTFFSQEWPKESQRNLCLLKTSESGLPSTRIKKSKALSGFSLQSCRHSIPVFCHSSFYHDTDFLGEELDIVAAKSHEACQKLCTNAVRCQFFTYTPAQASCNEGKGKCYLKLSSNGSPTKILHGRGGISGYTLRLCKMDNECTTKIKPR

Row | Ki [nM] | Compound
1 | 566 | Cc1[nH]nc2c1C(C(=O)Nc1ccc(C(=O)OC(C)(C)C)cc1)N(C(=O)/C=C/c1c(-n3cnnn3)ccc(Cl)c1F)CC2 (centres unmarked) [Example 76, (E)-tert-butyl 4-(5-(3-(3-chloro-2-fluoro-6-(1H-tetrazol-1-yl)phenyl)acryloyl)-3-methyl-4,5,6,7-tetrahydro-2H-pyrazolo[4,3-c]pyridine-4-carboxamido)benzoate, TFA salt]
2 | 172 | CC1(C)CN(C(=O)/C=C/c2cc(Cl)ccc2-n2cnnn2)C(C(=O)Nc2ccc(C(=O)O)cc2)c2c(Br)cccc21 (centres unmarked) [Example 55, (E)-4-(8-bromo-2-(3-(5-chloro-2-(1H-tetrazol-1-yl)phenyl)acryloyl)-4,4-dimethyl-1,2,3,4-tetrahydroisoquinoline-1-carboxamido)benzoic acid]
3 | 23.3 | CCc1nn(C)c2c1C(C(=O)Nc1ccc(C(=O)O)cc1)N(C(=O)/C=C/c1cc(Cl)ccc1-n1cnnn1)CC2 (centres unmarked) [Example 65, (E)-4-(5-(3-(5-Chloro-2-(1H-tetrazol-1-yl)phenyl)acryloyl)-3-ethyl-1-methyl-4,5,6,7-tetrahydro-1H-pyrazolo[4,3-c]pyridine-4-carboxamido)benzoic acid, TFA salt]
4 | 5.02 | Cc1[nH]nc2c1C(C(=O)Nc1ccc(C(=O)O)cc1)N(C(=O)/C=C/c1c(-n3cnnn3)ccc(Cl)c1F)CC2 (centres unmarked) [Example 77, (E)-4-(5-(3-(3-chloro-2-fluoro-6-(1H-tetrazol-1-yl)phenyl)acryloyl)-3-methyl-4,5,6,7-tetrahydro-2H-pyrazolo[4,3-c]pyridine-4-carboxamido)benzoic acid, TFA salt]

The next lines start with the compound.

Row | Compound | Ki [nM]
5 | O=C(Nc1ccc(C2CCCN2)cc1)[C@@H]1c2ccccc2CCN1C(=O)/C=C/c1cc(Cl)ccc1-n1cnnn1 (stereo partly drawn) [Example 40, (1S)-2-((E)-3-(5-Chloro-2-(1H-tetrazol-1-yl)phenyl)acryloyl)-N-(4-(pyrrolidin-2-yl)phenyl)-1,2,3,4-tetrahydroisoquinoline-1-carboxamide, TFA salt] | 6730
6 | O=C(O)c1ccc(NC(=O)C2c3ccnc(N4CCOCC4)c3CCN2C(=O)/C=C/c2c(-n3cnnn3)ccc(Cl)c2F)cc1 (centres unmarked) [Example 28, (E)-4-(2-(3-(3-Chloro-2-fluoro-6-(1H-tetrazol-1-yl)phenyl)acryloyl)-5-morpholino-1,2,3,4-tetrahydro-2,6-naphthyridine-1-carboxamido)benzoic acid, TFA Salt] | < 5
7 | O=C(O)c1ccc(NC(=O)[C@@H]2c3ccccc3CCN2C(=O)C#Cc2cc(Cl)ccc2-n2cnnn2)cc1 [Example 48, (S)-4-(2-(3-(5-Chloro-2-(1H-tetrazol-1-yl)phenyl)propioloyl)-1,2,3,4-tetrahydroisoquinoline-1-carboxamido)benzoic acid] | 7.08
8 | NC(=O)c1ccc(-c2nccc3c2CCN(C(=O)/C=C/c2c(-n4cnnn4)ccc(Cl)c2F)C3C(=O)Nc2ccc3cn[nH]c3c2)cc1 (centres unmarked) [Example 23, (E)-5-(4-Carbamoylphenyl)-2-(3-(3-chloro-2-fluoro-6-(1H-tetrazol-1-yl)phenyl)acryloyl)-N-(1H-indazol-6-yl)-1,2,3,4-tetrahydro-2,6-naphthyridine-1-carboxamide, TFA salt] | < 5
